Measured values as given in paper PMC4554797 (Bioorganic & medicinal chemistry, 2015).
Entries after “also recorded” stand apart in the source; their conditions may differ. Blank lines part the entries; values can stand above or below the compound they belong to.

Columns and labels:
MeWo = test: Cell viability assay; type: cell-based, human; conditions: MeWo cells, 48 h, over the concentrations tested
MeWo cells = test: Animal model of melanoma; type: in vivo, athymic nude mice; conditions: for Tumor growth vs. DMF control: 30 mg/kg i.p. three times a week
ATX [1] = test: Serum analysis, mouse ENPP2 ELISA; type: in vivo; conditions: at necropsy
ATX [2] = target: T1, ATX (Homo sapiens, UniProt Q13822); test: ATX Inhibitor Screening Kit, FS-3 hydrolysis; type: biochemical; conditions: for ATX inhibition (in words): dose-response mode, highest test concentration 10 μM
ATX [3] = target: T1, ATX; test: Dilution/dialysis washout experiment, ATX activity by FS-3; type: biochemical; conditions: pre-incubated two minutes, over 1000-fold dilution over approximately one hour
[4] = system: multiple cancer cell lines; test: Cell viability assay; type: cell-based, human; conditions: 48 h; for Effect on cell viability (in words): HT-29, PC-3, MDA-MB-231, MeWo, SB-2, OVCAR-3, SKOV-3
OVCAR-3 = test: Wound healing assay; type: cell-based, human; conditions: OVCAR-3, 5 μM
KC/CXCL1 = test: Serum analysis, mouse Bio-Plex 23-Plex panel; type: in vivo; conditions: at necropsy; p<0.05 at 20 mg/kg, p<0.001 at 50-40 mg/kg vs. control
MDA-MB-231 = test: Wound healing assay; type: cell-based, human; conditions: MDA-MB-231, 5 μM
[5] = system: MDA-MB-231, OVCAR-3, SKOV-3 and MeWo cells; test: Wound healing assay, all cell lines examined; type: cell-based, human
Melanoma tumors = test: Tumor specimen analysis; type: in vivo, athymic nude mice
VEGF = test: Serum analysis, circulating VEGF; type: in vivo, mouse; conditions: data not shown

SMILES: CC[C@]1(O)C[C@H]2CN(CCc3c([nH]c4ccccc34)[C@@](C(=O)OC)(c3cc4c(cc3OC)N(C=O)[C@H]3[C@@](O)(C(=O)OC)[C@H](OC(C)=O)[C@]5(CC)C=CCN6CC[C@]43[C@@H]65)C2)C1 [vincristine]
Cell viability reached (MeWo): ≥ 50%

SMILES: O=C1S/C(=C\c2ccc(OCc3cccc(B(O)O)c3)cc2)C(=O)N1Cc1ccc(F)cc1 [HA-130, reference compound]
Tumor growth vs. DMF control (MeWo cells): neither of these ATX inhibitors reached statistical significance; also recorded: did not impact tumor progression
Circulating ATX in serum vs. control (ATX [1]; 30 mg/kg): no significant difference

SMILES: O=C(CCN1CCN(C(=O)OCc2cc(Cl)cc(Cl)c2)CC1)c1ccc2[nH]c(=O)oc2c1 [PF-8380, reference compound]
Tumor growth vs. DMF control (MeWo cells): neither of these ATX inhibitors reached statistical significance; also recorded: did not impact tumor progression
Circulating ATX in serum vs. control (ATX [1]; 30 mg/kg): no significant difference

SMILES: CC(=O)O[C@H]1C(=O)[C@@]2(C)[C@H]([C@H](OC(=O)c3ccccc3)[C@]3(O)C[C@H](OC(=O)[C@H](O)[C@@H](NC(=O)c4ccccc4)c4ccccc4)C(C)=C1C3(C)C)[C@]1(OC(C)=O)CO[C@@H]1C[C@@H]2O [paclitaxel]
Cell viability reached (MeWo): ≥ 50%

ATX inhibition (in words) (ATX [2]): did not inhibit ATX
ATX inhibition (in words) (ATX [2]; listed as PVS-16 (21)): no binding effect
ATX inhibition after washout (ATX [3]): no evidence of inhibiting ATX activity
SMILES: C=C(CCCCCCCCCCCCCCCC)S(=O)(=O)c1ccccc1 [PVS-16]
Effect on cell viability (in words) [4]: little effect on cell viability
Effect on cell viability (in words) ([4]; listed as PVS-16 (21)): most cell types were unaffected

SMILES: C=C(CCCCCCCCCCCCCCCC)S(=O)(=O)CCC[N+](C)(C)C.[Cl-] [CVS-16, N,N,N-trimethyl-3-(octadec-1-en-2-ylsulfonyl)propan-1-aminium chloride]
ATX inhibition after short pre-incubation (ATX [2]; pre-incubating ATX with compound for 2 minutes): complete inhibition
Reduction of wound healing (OVCAR-3): over 75%
Serum KC/CXCL-1 (KC/CXCL1): significant reduction
Deaths (50 mg/kg group (n=5)): one mouse
Clinical condition of mice (50 mg/kg i.p., 46th day of the study): severely dehydrated
Reduction of wound healing (MDA-MB-231): over 75%
ATX inhibition after washout (ATX [3]): did not decrease the ATX inhibition
Wound healing (in words) ([5]; 5 μM, 24 h, vs. untreated): inhibited wound healing
Wound closure in combination with LPA ([5]; CVS-16 5 μM combined with LPA (18:1, 1 μM), in most cases): LPA was not able to overcome the inhibition
Concentration range of significant activity on cell viability [4]: 0.5 to 5 µM
Effect on cell viability (in words) [4]: reduced cell viability to some extent
Specimens with mixed areas of viable and necrotic endothelial cells (Melanoma tumors; 20 mg/kg): 50%
Specimens with only viable endothelial cells (Melanoma tumors; 20 mg/kg): 50%
Percent of necrotic tissue within the tumor (Melanoma tumors; 40-50 mg/kg, p<0.01 vs. control, p<0.05 vs. 20 mg/kg): significantly more necrosis than control
Ki-67 staining of tumor sections (Melanoma tumors; data not shown): no significant differences
Tumor volume vs. control (MeWo cells; 20 mg/kg i.p. three times a week): no significant difference
Time over which inhibition of tumor volume was sustained (MeWo cells; 40-50 mg/kg, days after the injection of tumor cells): approximately 53 days
Tumor sizes vs. control (MeWo cells; 50-40 mg/kg i.p. three times a week, day 57 (p<0.05) and day 65 (p<0.001)): achieved statistical significance
Melanoma progression in in vivo tumor model (MeWo cells; dose not given at this place): significantly inhibited melanoma progression
Circulating VEGF vs. controls (VEGF): did not observe any change
Circulating ATX in serum vs. control (ATX [1]; CVS-16 treated animals, p<0.05): significant reduction

SMILES: CN(C)/N=N/c1[nH]cnc1C(N)=O [dacarbazine]
Cell viability reached (MeWo): ≥ 50%
